Consider one molecule from ChEMBL document CHEMBL3046886, “Action of benzimidazolo-piperazinyl derivatives on dopamine receptors” (Med Chem Res, 2013).

Test [1] addresses T1, 5-hydroxytryptamine receptor 1A (Homo sapiens, UniProt P08908).
T1 sequence (P08908 whole entry): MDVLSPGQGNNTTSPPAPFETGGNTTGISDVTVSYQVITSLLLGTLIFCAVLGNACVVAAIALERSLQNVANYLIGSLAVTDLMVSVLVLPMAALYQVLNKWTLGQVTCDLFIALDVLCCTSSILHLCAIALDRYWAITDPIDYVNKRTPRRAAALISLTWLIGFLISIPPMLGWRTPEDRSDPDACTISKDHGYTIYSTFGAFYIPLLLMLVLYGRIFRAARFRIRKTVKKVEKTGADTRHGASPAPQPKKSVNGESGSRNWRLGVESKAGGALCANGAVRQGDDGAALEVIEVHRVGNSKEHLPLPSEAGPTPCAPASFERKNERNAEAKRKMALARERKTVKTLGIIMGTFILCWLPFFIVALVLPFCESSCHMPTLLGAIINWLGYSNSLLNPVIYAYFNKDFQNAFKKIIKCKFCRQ
Nature of the test: Binding affinity to 5-HT1A receptor (unknown origin). Particulars: read-out: pKi (converted).

The target of test [2] is Sodium-dependent serotonin transporter (Homo sapiens, UniProt P31645).
Chain of Sodium-dependent serotonin transporter (P31645 whole entry): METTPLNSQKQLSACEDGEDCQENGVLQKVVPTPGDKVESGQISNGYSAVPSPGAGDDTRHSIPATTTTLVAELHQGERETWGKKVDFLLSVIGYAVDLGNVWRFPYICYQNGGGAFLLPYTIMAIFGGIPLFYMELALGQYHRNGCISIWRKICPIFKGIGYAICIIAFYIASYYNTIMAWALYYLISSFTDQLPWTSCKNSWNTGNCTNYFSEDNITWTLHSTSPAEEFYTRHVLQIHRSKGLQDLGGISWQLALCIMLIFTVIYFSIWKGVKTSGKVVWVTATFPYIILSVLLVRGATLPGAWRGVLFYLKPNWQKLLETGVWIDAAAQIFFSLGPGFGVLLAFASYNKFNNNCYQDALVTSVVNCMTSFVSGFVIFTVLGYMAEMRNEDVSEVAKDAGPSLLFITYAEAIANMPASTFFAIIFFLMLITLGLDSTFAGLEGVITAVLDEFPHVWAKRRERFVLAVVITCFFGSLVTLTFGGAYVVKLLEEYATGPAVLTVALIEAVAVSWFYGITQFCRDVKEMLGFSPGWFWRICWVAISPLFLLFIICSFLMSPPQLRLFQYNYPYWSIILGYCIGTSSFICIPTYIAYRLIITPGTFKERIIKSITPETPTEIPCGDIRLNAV
Description: Inhibition of 5-HT uptake at SERT (unknown origin)
Test [3] concerns the target 5-hydroxytryptamine receptor 2A (Homo sapiens, UniProt P28223). Particulars: read-out: pKi (converted).
The next test concerns the target D(2) dopamine receptor (Homo sapiens, UniProt P14416). Nature of the test: Binding affinity to dopamine D2 receptor (unknown origin). The settings on record: read-out: pKi (converted).
The target of a further test is D(1A) dopamine receptor (Homo sapiens, UniProt P21728). Nature of the test: Binding affinity to dopamine D1 receptor (unknown origin). Particulars: read-out: pKi (converted).
Chain of D(1A) dopamine receptor (P21728 whole entry): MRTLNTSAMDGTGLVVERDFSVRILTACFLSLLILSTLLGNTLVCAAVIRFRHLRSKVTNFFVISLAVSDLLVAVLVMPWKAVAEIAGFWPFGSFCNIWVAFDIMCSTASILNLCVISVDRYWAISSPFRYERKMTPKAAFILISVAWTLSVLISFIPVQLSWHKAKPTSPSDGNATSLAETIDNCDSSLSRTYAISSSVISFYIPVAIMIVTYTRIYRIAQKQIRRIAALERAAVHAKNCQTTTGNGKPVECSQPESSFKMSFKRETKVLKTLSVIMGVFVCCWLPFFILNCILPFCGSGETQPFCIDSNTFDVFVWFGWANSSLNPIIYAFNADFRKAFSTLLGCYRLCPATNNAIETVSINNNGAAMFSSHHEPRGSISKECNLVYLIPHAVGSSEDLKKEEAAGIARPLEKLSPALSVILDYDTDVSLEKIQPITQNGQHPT
The species entered for a further test is Homo sapiens. Kind of test: Ratio of pKi for 5-HT2A receptor (unknown origin) to pKi for dopamine D2 receptor (unknown origin).
Test [4] addresses T2, 5-hydroxytryptamine receptor 2C (Homo sapiens, UniProt P28335).
T2 sequence (P28335 whole entry): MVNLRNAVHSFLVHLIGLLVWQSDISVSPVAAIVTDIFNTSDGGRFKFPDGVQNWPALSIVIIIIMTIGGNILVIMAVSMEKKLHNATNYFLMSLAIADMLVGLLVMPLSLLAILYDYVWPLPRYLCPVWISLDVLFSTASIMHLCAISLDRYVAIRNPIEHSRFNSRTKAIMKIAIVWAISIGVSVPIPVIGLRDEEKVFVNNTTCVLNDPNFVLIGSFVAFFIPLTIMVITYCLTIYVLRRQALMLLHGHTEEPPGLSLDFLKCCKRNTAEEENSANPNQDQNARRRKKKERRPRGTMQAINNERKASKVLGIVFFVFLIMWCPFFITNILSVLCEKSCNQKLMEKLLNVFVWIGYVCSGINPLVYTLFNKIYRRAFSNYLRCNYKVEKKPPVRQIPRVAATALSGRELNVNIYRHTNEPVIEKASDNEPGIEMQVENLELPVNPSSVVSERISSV
Kind of test: Binding affinity to 5-HT2C receptor (unknown origin).

Test [5] has as its target T3, 5-hydroxytryptamine receptor 3A (Homo sapiens, UniProt P46098).
T3 sequence (P46098 whole entry): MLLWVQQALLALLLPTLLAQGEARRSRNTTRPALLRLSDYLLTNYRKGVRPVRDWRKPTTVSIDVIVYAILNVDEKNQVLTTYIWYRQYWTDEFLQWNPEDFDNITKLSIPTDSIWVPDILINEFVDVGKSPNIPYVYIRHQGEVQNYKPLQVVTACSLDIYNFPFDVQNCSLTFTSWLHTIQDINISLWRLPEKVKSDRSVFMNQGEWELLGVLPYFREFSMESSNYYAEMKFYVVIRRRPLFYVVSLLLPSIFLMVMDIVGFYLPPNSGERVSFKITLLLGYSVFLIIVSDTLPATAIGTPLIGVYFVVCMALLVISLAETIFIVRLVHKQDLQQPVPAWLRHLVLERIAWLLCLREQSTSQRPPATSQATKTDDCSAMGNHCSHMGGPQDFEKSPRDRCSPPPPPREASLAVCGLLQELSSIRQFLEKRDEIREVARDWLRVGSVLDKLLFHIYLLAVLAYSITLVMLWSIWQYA
Kind of test: Binding affinity to 5-HT3 receptor (unknown origin).

Chain of D(2) dopamine receptor (P14416 whole entry): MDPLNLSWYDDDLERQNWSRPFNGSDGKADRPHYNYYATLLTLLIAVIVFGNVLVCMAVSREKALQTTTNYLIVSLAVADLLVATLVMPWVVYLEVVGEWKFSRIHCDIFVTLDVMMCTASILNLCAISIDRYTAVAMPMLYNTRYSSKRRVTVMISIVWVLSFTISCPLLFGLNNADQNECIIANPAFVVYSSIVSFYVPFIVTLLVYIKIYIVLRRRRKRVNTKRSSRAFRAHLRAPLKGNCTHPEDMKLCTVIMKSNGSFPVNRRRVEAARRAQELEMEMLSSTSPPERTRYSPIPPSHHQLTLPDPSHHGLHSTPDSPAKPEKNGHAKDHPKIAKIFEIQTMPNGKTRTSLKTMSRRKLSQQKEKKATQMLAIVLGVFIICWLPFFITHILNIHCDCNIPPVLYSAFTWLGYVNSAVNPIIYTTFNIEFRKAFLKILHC
Chain of 5-hydroxytryptamine receptor 2A (P28223 whole entry): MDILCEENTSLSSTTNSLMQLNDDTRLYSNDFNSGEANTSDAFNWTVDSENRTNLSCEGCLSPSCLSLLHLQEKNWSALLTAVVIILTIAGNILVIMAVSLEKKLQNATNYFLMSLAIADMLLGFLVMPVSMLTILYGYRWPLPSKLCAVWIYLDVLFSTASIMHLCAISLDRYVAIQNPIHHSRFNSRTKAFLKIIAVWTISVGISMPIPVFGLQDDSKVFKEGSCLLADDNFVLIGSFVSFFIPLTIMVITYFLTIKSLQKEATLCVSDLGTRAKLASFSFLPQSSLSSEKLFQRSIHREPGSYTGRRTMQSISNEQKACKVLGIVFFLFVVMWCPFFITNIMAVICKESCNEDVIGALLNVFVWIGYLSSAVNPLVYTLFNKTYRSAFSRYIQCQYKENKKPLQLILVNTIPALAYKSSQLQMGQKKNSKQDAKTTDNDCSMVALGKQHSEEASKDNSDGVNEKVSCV

For orientation: IC50 means the concentration at which inhibition is half-maximal. In the case of `c1ccc2c(N3CCN(CCc4ccc5[nH]cnc5c4)CC3)cccc2c1`, the Ki was 126 nM in test [1]; 15.1 nM in test [3]; 1.66 nM at D(2) dopamine receptor; 3980 nM on D(1A) dopamine receptor; 64.6 nM in test [4]; 5250 nM in test [5]. In test [2], this molecule registered an IC50 of 1760 nM. For the same molecule, the Ratio pKi in the test listed under Homo sapiens is 0.89.
